Key:
[1] = Degree of solubility (miscibility) of the silicone in oil agents; format: physicochemical; set-up: key: “D” means “dispersed”; “I” means “insoluble.”; A silicone with no mark means that it dissolved to form a transparent solution
Experimental: (§1) The present invention will be explained in detail with reference to the following Examples, but not limited to them. In the Examples, surface tension was measured with a full automatic tensiometer, model PD-W, ex Kyowa Interface Science Co. Ltd., at 25 degrees C. according to the water drop method in which a contact angle with the air is measured. A surface tension of dimethylpolysiloxane having a viscosity of 30 mm^2/s at 25 degrees C. measured according to this method was 18.2 mN/m. In the tables shown below, “D” and “I” each represents a degree of solubility: “D” means “dispersed” and “I” means “insoluble.” A silicone with no mark means that it dissolved to form a transparent solution.
(§2) Some properties and solubility in oil agents were determined with each of the glycerol-modified silicone prepared in Examples 1 to 5. Surface tension of the mixtures of the silicone and the oil agent were measured, too.

[2] = Surface tension of silicone/oil agent mixtures, automatic tensiometer, 25 degrees C.; format: physicochemical; details: for Surface Tension, glycerol-modified silicone/oil agent = 10/90, Liquid paraffin / Surface Tension, glycerol-modified silicone/oil agent = 10/90, Rapeseed oil / Surface Tension, glycerol-modified silicone/oil agent = 10/90, Soybean oil: 25 C.; for Surface Tension, glycerol-modified silicone/oil agent = 10/90, Liquid paraffin: silicone/liquid paraffin = 10/90, neat liquid paraffin 27.9; for Surface Tension, glycerol-modified silicone/oil agent = 10/90, Rapeseed oil: silicone/rapeseed oil = 10/90, neat rapeseed oil 31; for Surface Tension, glycerol-modified silicone/oil agent = 10/90, Soybean oil: silicone/soybean oil = 10/90, neat soybean oil 31.8; for Surface tension, amount added 1 wt % / Surface tension, amount added 5 wt % / Surface tension, amount added 10 wt % / Surface tension, amount added 15 wt %: Table 5, oil agent not named; for Surface tension, amount added 1 wt %: 1 wt % silicone; for Surface tension, amount added 5 wt %: 5 wt % silicone; for Surface tension, amount added 10 wt %: 10 wt % silicone; for Surface tension, amount added 15 wt %: 15 wt % silicone
Experimental: as §1, §2
Silicones modified with compounds other than glycerol were prepared. Mixtures with the oil agents were prepared and surface tension thereof was measured as in Examples.
Compositions were prepared containing an oil agent and the glycerol-modified silicone in a weight ratio of 90/10 and surface tension thereof was measured.
Silicones without having a glycerol residue and silicones having a structure other than, A-B-A, were prepared and subjected to the measurements as in Examples. Mixtures with the oil agents were prepared each of which surface tension was measured as in Examples.

[3] = tested on: leaf of Citrus Natsudaidai; assay: Spreading of one drop of liquid paraffin containing silicone on a leaf (FIGS. 1 & 2); details: 15 μl drop of liquid paraffin containing 10 wt % silicone; 5 minutes after placing
Experimental: FIGS. 1 & 2 are photographs each taken 5 minutes after one drop, i.e., 15 μl, of liquid paraffin containing 10 wt % of the silicone of Example 2 and Comparative Example 6, respectively, was placed on a leaf of Citrus Natsudaidai. […] Comparing the figures, the liquid paraffin containing the glycerol-modified silicone in Example 2 has better spreading property than the silicone modified with n-octene.

SMILES: C[Si](C)(CCCOCC(O)CO)O[Si](C)(C)CCCOCC(O)CO (stereo not shown) [Comparative Example 1]
- Miscibility, glycerol-modified silicone/oil agent = 10/90, Liquid paraffin ([1]; silicone/liquid paraffin = 10/90): (I)
- Miscibility, glycerol-modified silicone/oil agent = 10/90, Rapeseed oil ([1]; silicone/rapeseed oil = 10/90): (I)
- Miscibility, glycerol-modified silicone/oil agent = 10/90, Soybean oil ([1]; silicone/soybean oil = 10/90): (I)

SMILES: CC(CCO)C[Si](C)(O[Si](C)(C)C)O[Si](C)(C)C (stereo not shown) [compound 11]
- Surface Tension, glycerol-modified silicone/oil agent = 10/90, Liquid paraffin [2]: 23.7 mN/m
- Surface Tension, glycerol-modified silicone/oil agent = 10/90, Rapeseed oil [2]: 24.9 mN/m
- Surface Tension, glycerol-modified silicone/oil agent = 10/90, Soybean oil [2]: 24.3 mN/m
- Surface tension, amount added 1 wt % [2]: 27 mN/m
- Surface tension, amount added 5 wt % [2]: 24.4 mN/m
- Surface tension, amount added 10 wt % [2]: 23.7 mN/m
- Surface tension, amount added 15 wt % [2]: 23.7 mN/m

SMILES: CCCCCCCCCCCC[Si](C)(O[Si](C)(C)C)O[Si](C)(C)C [compound 7]
- Surface Tension, glycerol-modified silicone/oil agent = 10/90, Liquid paraffin [2]: 26.3 mN/m

SMILES: C[Si](C)(C)O[Si](C)(CCCCCO)O[Si](C)(C)C [compound 10]
- Surface Tension, glycerol-modified silicone/oil agent = 10/90, Liquid paraffin [2]: 25.4 mN/m
- Surface tension, amount added 1 wt % [2]: 26.6 mN/m
- Surface tension, amount added 5 wt % [2]: 25 mN/m
- Surface tension, amount added 10 wt % [2]: 25.4 mN/m
- Surface tension, amount added 15 wt % [2]: 22.7 mN/m

SMILES: CCCCCCCC[Si](C)(C)O[Si](C)(C)O[Si](C)(C)C [compound 8]
- Surface Tension, glycerol-modified silicone/oil agent = 10/90, Liquid paraffin [2]: 25 mN/m

SMILES: CCC(CO)(CO)COCCC[Si](C)(C)O[Si](C)(C)C [compound 14]
- Surface Tension, glycerol-modified silicone/oil agent = 10/90, Liquid paraffin [2]: 23 mN/m
- Surface Tension, glycerol-modified silicone/oil agent = 10/90, Rapeseed oil [2]: 26.9 mN/m
- Surface Tension, glycerol-modified silicone/oil agent = 10/90, Soybean oil [2]: 27.5 mN/m

SMILES: CCCCCCCC[Si](C)(O[Si](C)(C)C)O[Si](C)(C)C [Comparative Example 6]
- Surface Tension, glycerol-modified silicone/oil agent = 10/90, Liquid paraffin [2]: 25.5 mN/m
- Surface Tension, glycerol-modified silicone/oil agent = 10/90, Rapeseed oil [2]: 24.5 mN/m
- Surface Tension, glycerol-modified silicone/oil agent = 10/90, Soybean oil [2]: 24.9 mN/m
- Surface tension, amount added 1 wt % [2]: 27.4 mN/m
- Surface tension, amount added 5 wt % [2]: 25.3 mN/m
- Surface tension, amount added 10 wt % [2]: 25.5 mN/m
- Surface tension, amount added 15 wt % [2]: 24.4 mN/m
- spreading of a drop on a leaf [3]: remained as a small circle

SMILES: CCC(CO)(CO)COCCC[Si](C)(O[Si](C)(C)C)O[Si](C)(C)C [compound 15]
- Surface Tension, glycerol-modified silicone/oil agent = 10/90, Liquid paraffin [2]: 22.1 mN/m
- Surface Tension, glycerol-modified silicone/oil agent = 10/90, Rapeseed oil [2]: 25.3 mN/m
- Surface Tension, glycerol-modified silicone/oil agent = 10/90, Soybean oil [2]: 26 mN/m

SMILES: C[Si](C)(C)O[Si](C)(C)CCCOCC(O)CO (stereo not shown) [Example 1]
- Surface Tension, glycerol-modified silicone/oil agent = 10/90, Liquid paraffin [2]: 21.3 mN/m
- Surface Tension, glycerol-modified silicone/oil agent = 10/90, Rapeseed oil [2]: 22.6 mN/m
- Surface Tension, glycerol-modified silicone/oil agent = 10/90, Soybean oil [2]: 21.9 mN/m

From US7998903B2, “Glycerol-modified silicone spreading agent and a composition comprising the same” (Shin-Etsu Chemical Co., Ltd., priority 2004, dated 2011)
